Experimental data as given in ChEMBL document CHEMBL5532687, “A colorimetric assay adapted to fragment screening revealing aurones and chalcones as new arginase inhibitors” (RSC Med Chem, 2024).

Biological target: T1, Arginase-1 (Bos taurus, UniProt Q2KJ64)
T1 sequence (Q2KJ64 whole entry): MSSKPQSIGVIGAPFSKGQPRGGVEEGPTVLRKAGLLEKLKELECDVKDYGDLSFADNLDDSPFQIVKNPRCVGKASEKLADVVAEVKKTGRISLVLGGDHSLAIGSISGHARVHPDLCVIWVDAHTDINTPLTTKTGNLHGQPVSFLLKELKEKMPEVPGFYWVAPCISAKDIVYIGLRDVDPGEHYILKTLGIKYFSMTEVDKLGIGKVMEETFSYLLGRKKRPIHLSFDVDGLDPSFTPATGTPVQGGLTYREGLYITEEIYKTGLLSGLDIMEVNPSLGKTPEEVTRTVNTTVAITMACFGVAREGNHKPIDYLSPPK
Assay: Inhibition of bovine liver arginase 1 using L-arginine as substrate incubated for 60 mins by OPA-p colorimetric assay

Structure (SMILES)	IC50
O=C(/C=C/c1ccc(O)c(O)c1)c1cccc(O)c1	102 µM
O=C(/C=C/c1ccc(O)c(O)c1)c1ccccc1	351 µM
O=C(/C=C/c1ccc(O)c(O)c1)c1cc(O)cc(O)c1	136 µM
O=C(/C=C/c1ccc(O)c(O)c1)c1ccc(O)c(O)c1	91.1 µM
O=C1/C(=C/c2ccc(O)c(O)c2)Oc2c1ccc(O)c2O	254 µM
O=C(/C=C/c1ccc(O)c(O)c1)c1ccc(O)cc1	354 µM
O=C(/C=C/c1ccc(O)cc1)c1ccc(O)c(O)c1	302 µM
N[C@@H](CSCCB(O)O)C(=O)O	23 µM
Oc1ccc(Cl)cc1C1CC(c2ccco2)=NN1 (configuration not stated)	720 µM
O=C1/C(=C/c2ccc(O)c(O)c2O)Oc2c1ccc(O)c2O	532 µM
O=C1/C(=C/c2ccc(F)cc2)Oc2c1ccc(O)c2O	507 µM
O=C1/C(=C/c2ccc(O)cc2)Oc2c1ccc(O)c2O	1930 µM
O=C1/C(=C/c2cc(O)c(O)c(O)c2)Oc2c1ccc(O)c2O	287 µM
O=C(/C=C/c1cc(O)c(O)c(O)c1)c1ccc(O)c(O)c1	764 µM
O=C(/C=C/c1ccccc1)c1ccc(O)c(O)c1	384 µM
O=C(/C=C/c1cc(O)cc(O)c1)c1ccc(O)c(O)c1	364 µM
O=C(/C=C/c1cccc(O)c1)c1ccc(O)c(O)c1	135 µM
O=C1/C(=C/c2cccc(O)c2)Oc2c1ccc(O)c2O	120 µM
O=C1/C(=C/c2c(F)c(F)c(F)c(F)c2F)Oc2c1ccc(O)c2O	1090 µM
O=C1/C(=C/c2ccc(F)c(F)c2)Oc2c1ccc(O)c2O	312 µM
O=C1C(=Cc2ccc(O)c(O)c2)C(=O)c2ccccc21	537 µM
O=C(/C=C/c1ccc(O)c(O)c1)c1c(O)cc(O)cc1O [3,4,2',4',6'-PENTAHYDROXYCHALCONE]	98 µM
O=C(/C=C/c1ccc(O)c(O)c1)c1ccc(O)cc1O [BUTEIN]	1550 µM
O=C(/C=C/c1ccc(O)c(O)c1)O[C@@H]1C[C@](O)(C(=O)O)C[C@@H](O)[C@H]1O [CHLOROGENIC ACID]	271 µM
Oc1cc(O)cc(/C=C/c2ccc(O)c(O)c2)c1 [PICEATANNOL]	71.6 µM
Oc1cccc(O)c1O [PYROGALLOL]	375 µM
O=C1/C(=C/c2ccc(O)c(O)c2)Oc2cc(O)ccc21 [SULFURETIN]	437 µM
